The conditions of data set [1]: cited from earlier work.
For data set [2] the following is noted: cited from earlier work. This is another data set of the same source.
Data set [3] concerns fungi. In words: Antifungal activity compared with traditional veterinary antifungal compounds. To be noted: fold versus clotrimazole, miconazole, nystatin. From the text:
The antifungal drug preferably is posaconazole, a drug with 10-400× the antifungal activity of traditional antifungal compounds used in veterinary medicine such as clotrimazole, miconazole, nystatin. It will be the first use of a triazole antifungal in veterinary medicine. The combination for this proposed otic product is new. The product requires only one application per day. In summary, the justification for use of the centralized procedure is: • Novel antibiotic in an otic preparation with none of the ototoxicity of the aminoglycosides often used in such products; • Novel, corticosteroid, with a better safety profile when compared other corticosteroids used in otic preparations; • Potent triazole anti-fungal drug; • Novel combination of the three drugs described above; • Single daily application.

On to `C[C@@H]1C[C@H]2[C@@H]3CCC4=CC(=O)C=C[C@]4(C)[C@@]3(Cl)[C@@H](O)C[C@]2(C)[C@@]1(OC(=O)c1ccco1)C(=O)CCl` [Mometasone Furoate, 9,21-Dichloro-11(beta),17-dihydroxy-16(alpha)-methylpregna-1,4-diene-3,20-dione 17-(2 Furoate)], for which the solubility in acetone entry in data set [1] (acetone) is given as “soluble”. In addition, the solubility in chloroform result in data set [1] (chloroform) was “soluble”. Besides, the solubility in ethanol result in data set [1] (ethanol) is on record as “slightly soluble”. For the same compound, the solubility in isopropanol result in data set [1] (isopropanol) is listed as “slightly soluble”. For the same compound, the solubility in methanol result in data set [1] (methanol) is reported as “slightly soluble”. The solubility in tetrahydrofuran entry in data set [1] (tetrahydrofuran) is given as “freely soluble”. The solubility in water result in data set [1] (water) was “practically insoluble”. Further, the “partition coefficient between octanol and water” value in data set [2] is “greater than 5000”.

With `CC[C@@H]([C@H](C)O)n1ncn(-c2ccc(N3CCN(c4ccc(OC[C@@H]5CO[C@@](Cn6cncn6)(c6ccc(F)cc6F)C5)cc4)CC3)cc2)c1=O` [posaconazole], in data set [3], the “antifungal activity relative to traditional antifungal compounds” value is 10-400 ×.

Values taken from patent US8609645B2, “Pharmaceutical formulation” (Intervet Inc., priority 2004, dated 2013).
